Where a name gives a salt, the structure may show the parent alone. Read-outs that look alike come from different tables or passages of the source.

For data set [1], the target named is T1, human cloned 5-HT6 receptors (Homo sapiens, UniProt P50406).
T1 construct: expressed in transfected cells; host or cells: HeLa cells
The experiment in a line: 5-HT6 binding affinity, [3H]-LSD displacement on membranes of Hela cells. In a few lines:
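Filter-bound radioactivity counted by scintillation. Binding at varying test-compound concentrations expressed as percent of specific binding without compound and plotted log % bound versus log concentration.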

For another data set, the target named is human 5-HT2A receptor (Homo sapiens, UniProt P28223). Description: 5-HT2A FLIPR assay, antagonism of DOI calcium response in CHO cells.
[2] abbreviates: Table 1, [3H]-LSD 3.0 nM, Hela cell membranes, read-out: Ki (nM) @ 5-HT6 receptor.
[3] abbreviates: read-out: 5-HT2A IC50, antagonism of 3 nM DOI, CHO cells, FLIPR.

T1 sequence (P50406 whole entry): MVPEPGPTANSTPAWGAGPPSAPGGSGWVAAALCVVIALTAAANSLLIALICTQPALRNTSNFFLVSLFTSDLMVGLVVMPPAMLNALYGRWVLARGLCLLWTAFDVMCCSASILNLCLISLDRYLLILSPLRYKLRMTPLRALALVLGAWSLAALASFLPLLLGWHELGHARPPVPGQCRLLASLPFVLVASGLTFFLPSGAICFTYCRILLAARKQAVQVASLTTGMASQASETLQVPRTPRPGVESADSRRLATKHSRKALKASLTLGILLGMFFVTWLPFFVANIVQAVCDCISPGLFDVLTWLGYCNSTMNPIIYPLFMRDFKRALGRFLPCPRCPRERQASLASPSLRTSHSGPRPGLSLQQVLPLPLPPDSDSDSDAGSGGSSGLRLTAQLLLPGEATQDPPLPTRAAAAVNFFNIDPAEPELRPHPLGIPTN
Sequence of human 5-HT2A receptor (P28223 whole entry): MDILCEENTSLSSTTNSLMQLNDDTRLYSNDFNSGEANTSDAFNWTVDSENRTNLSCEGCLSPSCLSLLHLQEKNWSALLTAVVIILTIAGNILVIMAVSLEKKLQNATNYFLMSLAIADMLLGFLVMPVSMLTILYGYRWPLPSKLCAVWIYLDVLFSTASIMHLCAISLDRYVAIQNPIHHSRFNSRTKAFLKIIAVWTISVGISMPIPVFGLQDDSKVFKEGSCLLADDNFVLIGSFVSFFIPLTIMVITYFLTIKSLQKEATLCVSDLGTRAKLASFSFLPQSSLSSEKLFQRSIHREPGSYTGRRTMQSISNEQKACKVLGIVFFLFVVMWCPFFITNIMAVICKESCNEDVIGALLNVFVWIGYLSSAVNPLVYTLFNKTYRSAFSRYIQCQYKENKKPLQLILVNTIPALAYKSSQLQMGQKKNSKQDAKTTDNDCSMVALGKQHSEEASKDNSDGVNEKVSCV

The melting point is the temperature of the solid-liquid transition. As for `O=S(=O)(c1ccccc1)c1c[nH]c2c(CCN3CCOCC3)cccc12` (as salt: hydrochloride) [Example 28, 7-(2-morpholin-4-ylethyl)-3-(phenylsulfonyl)-1H-indole], the melting point is 246 to 248 °C (dec.).
Still for that read-out and setting: the value for `O=S(=O)(c1ccccc1)c1c[nH]c2c(CCN3CCNCC3)cccc12` (as salt: hydrochloride) [Example 30, 3-(phenylsulfonyl)-7-(2-piperazin-1-ylethyl)-1H-indole] was 190 °C.
On the same count and under the same terms, the result for `CN(C)CCc1cccc2[nH]cc(S(=O)(=O)c3ccccc3)c12` (as salt: hydrochloride) [Example 31, N,N-dimethyl-N-{2-[3-(phenylsulfonyl)-1H-indol-4-yl]ethyl}amine] reads 122 to 126 °C; that for `CNCCc1cccc2[nH]cc(S(=O)(=O)c3ccccc3)c12` (as salt: hydrochloride) [Example 32, N-methyl-N-{2-[3-(phenylsulfonyl)-1H-indol-4-yl]ethyl}amine], 168 to 170 °C; that for `CCNCCc1cccc2[nH]cc(S(=O)(=O)c3ccccc3)c12` (as salt: hydrochloride) [Example 33, N-ethyl-N-{2-[3-(phenylsulfonyl)-1H-indol-4-yl]ethyl}amine], 225 to 228 °C.
The same measure, in the same setting: the value for `CCCNCCc1cccc2[nH]cc(S(=O)(=O)c3ccccc3)c12` (as salt: hydrochloride) [Example 34, N-{2-[3-(phenylsulfonyl)-1H-indol-4-yl]ethyl}-N-propylamine] was 217 °C; that for `CC(C)NCCc1cccc2[nH]cc(S(=O)(=O)c3ccccc3)c12` (as salt: hydrochloride) [Example 35, N-{2-[3-(phenylsulfonyl)-1H-indol-4-yl]ethyl}propan-2-amine] was 185 to 187 °C.
Compound `O=S(=O)(c1ccccc1)c1c[nH]c2cccc(CCNC3CC3)c12` (as salt: hydrochloride) [Example 36, N-{2-[3-(phenylsulfonyl)-1H-indol-4-yl]ethyl}cyclopropanamine] gave a melting point of 145 to 150 °C.
Still for that read-out and setting: the value for `O=S(=O)(c1ccccc1)c1c[nH]c2cccc(CCNC3CCC3)c12` (as salt: hydrochloride) [Example 37, N-{2-[3-(phenylsulfonyl)-1H-indol-4-yl]ethyl}cyclobutanamine] was 95 to 103 °C.
Same read-out and setting: the result for `O=S(=O)(c1ccccc1)c1c[nH]c2cccc(CCNC3CCCCC3)c12` (as salt: hydrochloride) [Example 39, N-{2-[3-(phenylsulfonyl)-1H-indol-4-yl]ethyl}cyclohexanamine] reads 241 °C; that for `CCN(C)CCc1cccc2[nH]cc(S(=O)(=O)c3ccccc3)c12` (as salt: hydrochloride) [Example 40, N-ethyl-N-methyl-N-{2-[3-(phenylsulfonyl)-1H-indol-4-yl]ethyl}amine], 92 to 98 °C; that for `CN(CCc1cccc2[nH]cc(S(=O)(=O)c3ccccc3)c12)C1CCCCC1` (as salt: hydrochloride) [Example 41, N-cyclohexyl-N-methyl-N-{2-[3-(phenylsulfonyl)-1H-indol-4-yl]ethyl}amine], 132 to 140 °C.
`CCN(CC)CCc1cccc2[nH]cc(S(=O)(=O)c3ccccc3)c12` (as salt: hydrochloride) [Example 42, N,N-diethyl-N-{2-[3-(phenylsulfonyl)-1H-indol-4-yl]ethyl}amine] registered a melting point of 77 to 83 °C.
The same measure, in the same setting: the value for `O=S(=O)(c1ccccc1)c1c[nH]c2cccc(CCN3CCCC3)c12` (as salt: hydrochloride) [Example 43, 3-(phenylsulfonyl)-4-(2-pyrrolidin-1-ylethyl)-1H-indole] was 145 to 150 °C; that for `O=S(=O)(c1ccccc1)c1c[nH]c2cccc(CCN3CCCCC3)c12` (as salt: hydrochloride) [Example 44, 3-(phenylsulfonyl)-4-(2-piperidin-1-ylethyl)-1H-indole] was 200 to 205 °C.
The compound `O=S(=O)(c1ccccc1)c1c[nH]c2cccc(CCN3CCOCC3)c12` (as salt: hydrochloride) [Example 45, 4-(2-morpholin-4-ylethyl)-3-(phenylsulfonyl)-1H-indole] had a melting point of 164 to 165 °C.
On the same count and under the same terms, the result for `CC(NCCc1cccc2[nH]cc(S(=O)(=O)c3ccccc3)c12)C(C)(C)C` (stereo not drawn) (as salt: hydrochloride) [Example 46, N-{2-[3-(phenylsulfonyl)-1H-indol-4-yl]ethyl}-N-(1,2,2-trimethylpropyl)amine] reads 275 °C.
The same measure, in the same setting: the result for `O=S(=O)(c1ccccc1)c1c[nH]c2cccc(CCNCc3ccccc3)c12` (as salt: hydrochloride) [Example 47, N-benzyl-N-{2-[3-(phenylsulfonyl)-1H-indol-4-yl]ethyl}amine] reads 172 °C.
Still for that read-out and setting: the value for `CC(C)CNCCc1cccc2[nH]cc(S(=O)(=O)c3ccccc3)c12` (as salt: hydrochloride) [Example 48, N-isobutyl-N-{2-[3-(phenylsulfonyl)-1H-indol-4-yl]ethyl}amine] was 220 °C; that for `CC(C)(C)CNCCc1cccc2[nH]cc(S(=O)(=O)c3ccccc3)c12` (as salt: hydrochloride) [Example 49, N-(2,2-dimethylpropyl)-N-{2-[3-(phenylsulfonyl)-1H-indol-4-yl]ethyl}amine] was 135 °C; that for `O=S(=O)(c1ccccc1)c1c[nH]c2cccc(CCNCC3CCCO3)c12` (stereo not drawn) (as salt: hydrochloride) [Example 51, N-{2-[3-(phenylsulfonyl)-1H-indol-4-yl]ethyl}-N-((tetrahydrofur-2-yl)methyl)amine] was 110 to 115 °C.
The compound `NCCc1cccc2[nH]cc(S(=O)(=O)c3ccccc3)c12` (as salt: hydrochloride) [Example 61, {2-[3-(phenylsulfonyl)-1H-indol-4-yl]ethyl}amine] displayed a melting point of 130 to 134 °C.
Regarding `NCCc1cccc2[nH]cc(S(=O)(=O)c3cccc(F)c3)c12` (as salt: hydrochloride) [Example 85, {2-[3-(3-fluorophenylsulfonyl)-1H-indol-4-yl]ethyl}amine], the melting point fell in the range of 122 to 125 °C.
Still for that read-out and setting: the result for `CN(C)CCc1ccc2c(S(=O)(=O)c3ccccc3)c[nH]c2c1` (as salt: hydrochloride) [Example 86, N,N-dimethyl-N-{2-[3-(phenylsulfonyl)-1H-indol-6-yl]ethyl}amine] reads 118 to 120 °C; that for `NCCc1ccc2c(S(=O)(=O)c3ccccc3)c[nH]c2c1` (as salt: hydrochloride) [Example 109, {2-[3-(phenylsulfonyl)-1H-indol-6-yl]ethyl}amine], 178 °C.
The Ki is a measure of affinity in units of concentration, obtained from inhibition or displacement. In the case of `CNCCc1ccc2[nH]cc(S(=O)(=O)c3ccccc3)c2c1` [Example 14, N-methyl-N-{2-[3-(phenylsulfonyl)-1H-indol-5-yl]ethyl}amine], the melting point lay in the range of 151 to 154 °C. Also, the Ki in data set [1] (setting [2]) was 5.2 nM.
Consider `CNCCc1ccc2[nH]c(C)c(S(=O)(=O)c3ccccc3)c2c1` [Example 15, N-methyl-N-{2-[2-methyl-3-(phenylsulfonyl)-1H-indol-5-yl]ethyl}amine], for which the melting point lay in the range of 213 to 215 °C. The Ki in data set [1] was determined as 44 nM.
In turn, `CCc1[nH]c2ccc(CCNC)cc2c1S(=O)(=O)c1ccccc1` [Example 16, N-{2-[2-ethyl-3-(phenylsulfonyl)-1H-indol-5-yl]ethyl}-N-methylamine] returned a melting point of 179 to 182 °C. Moreover, in data set [1], the Ki is 29 nM.
`CNCCc1ccc2[nH]c(-c3ccccc3)c(S(=O)(=O)c3ccccc3)c2c1` [Example 17, N-methyl-N-{2-[2-phenyl-3-(phenylsulfonyl)-1H-indol-5-yl]ethyl}amine] displayed a melting point of 180 to 185 °C. The Ki in data set [1] (setting [2]) came to 355 nM.
As a reminder, the IC50 is the midpoint of a concentration-inhibition curve. Turning to `CNCCc1cccc2[nH]cc(S(=O)(=O)c3ccccc3)c12` [Example 32, N-methyl-N-{2-[3-(phenylsulfonyl)-1H-indol-4-yl]ethyl}amine], the Ki in data set [1] (setting [2]) turned out to be 143 nM; in data set [1] (Table 2, read-out: 5-HT6 Ki), 143 nM. Also, at human 5-HT2A receptor (setting [3]), the IC50 was 1100 nM.
`CCNCCc1cccc2[nH]cc(S(=O)(=O)c3ccccc3)c12` [Example 33, N-ethyl-N-{2-[3-(phenylsulfonyl)-1H-indol-4-yl]ethyl}amine]: the Ki in data set [1] (setting [2]) stood at 207 nM; in data set [1] (Table 2, read-out: 5-HT6 Ki) it was 207 nM. Moreover, the IC50 at human 5-HT2A receptor stood at 1100 nM.
Take `CCCNCCc1cccc2[nH]cc(S(=O)(=O)c3ccccc3)c12` [Example 34, N-{2-[3-(phenylsulfonyl)-1H-indol-4-yl]ethyl}-N-propylamine]: the Ki came to 216 nM in data set [1] (setting [2]) and 216 nM in data set [1] (Table 2, read-out: 5-HT6 Ki). Besides, the IC50 on human 5-HT2A receptor (setting [3]) is 1080 nM.
On to `O=S(=O)(c1ccccc1)c1c[nH]c2cccc(CCN3CCCC3)c12` [Example 43, 3-(phenylsulfonyl)-4-(2-pyrrolidin-1-ylethyl)-1H-indole], for which the Ki in data set [1] (setting [2]) is 73 nM; in data set [1] (Table 2, read-out: 5-HT6 Ki), 73 nM. The IC50 on human 5-HT2A receptor is 197 nM.
In the case of `CC1CCCCN1CCc1cccc2[nH]cc(S(=O)(=O)c3ccccc3)c12` (stereo not drawn) [Example 56, 4-[2-(2-methylpiperidin-1-yl)ethyl]-3-(phenylsulfonyl)-1H-indole], the half-maximal inhibitory concentration (IC50) at human 5-HT2A receptor worked out at 73 nM.
Same read-out and setting: the value for `CC1CCCN(CCc2cccc3[nH]cc(S(=O)(=O)c4ccccc4)c23)C1` (stereo not drawn) [Example 57, 4-[2-(3-methylpiperidin-1-yl)ethyl]-3-(phenylsulfonyl)-1H-indole] was 72 nM; that for `O=S(=O)(c1ccccc1)c1c[nH]c2cccc(CCN3CCCCCC3)c12` [Example 58, 4-(2-azepan-1-ylethyl)-3-(phenylsulfonyl)-1H-indole] was 90 nM.

The record behind these values is US7645752B2, “Sulfonyl substituted 1H-indoles as ligands for the 5-hydroxytryptamine receptors” (Wyeth LLC, priority 2006, dated 2010).
